According to patent US12344610B2, “APOL1 inhibitors and methods of use” (Maze Therapeutics, Inc., priority 2022, dated 2025):
Read-outs that look alike come from different tables or passages of the source.

Tests used:
Type in all cases: cell-based
[1] = test system: Trypanosoma brucei Lister 427 VSG221 with APOL1 G0 recombinant protein; experiment: APOL1 G0 trypanosome cell rescue assay (Example B5); details: geometric mean of at least 2 assay runs, † = single assay run
Method: (§1) APOL1 G0/G1/G2 viability assay for measurement of cytotoxicity reversal by compound in trypanosomes (APOL1 G0/G1/G2 trypanosome cell rescue assay).
(§2) APOL1 protein expression and purification. The mature from of APOL1 proteins, residues 28-398, were expressed from a pET28a vector with an N-terminal His-tag and TEV cleavage site. Proteins were expressed in Escherichia coli BL21-CodonPlus (DE3)-RIPL cells. Liter cultures of terrific broth were grown at 37° C. until an OD600 of ˜0.8 was reached and then induced with isopropyl β-D-1-thiogalactopyranoside (IPTG; final concentration of 500 μM). Afterwards, cultures were grown for 3 hours at 37° C. For protein purification, cell pellets were resuspended in lysis buffer (50 mM Tris, pH 8.5, 5 mM EDTA, 0.5 mM DTT, 0.5 mM PMSF) supplemented with a cocktail of protease inhibitors. Cells were lysed by sonication, centrifuged, and the resulting pellet was collected. The homogenized pellet was resuspended in wash buffer (50 mM Tris, pH 8.5, 0.5 M NaCl, 5 mM EDTA, 0.5 mM DTT, 0.5 mM PMSF, protease inhibitor cocktail) and collected by centrifugation. Inclusion body dissolution was then conducted as previously reported (PNAS 112(9) (2015) 2894-2899; www.pnas.org/cgi/doi/10.1073/pnas.1421953112; herein incorporated by reference in its entirety). The solubilized APOL1 protein was applied to a nickel column (HisTrap, GE Life Sciences) preequilibrated in buffer A (50 mM Tris, pH 8.5, 0.15 M NaCl, 1% zwittergent 3-14, protease inhibitor cocktail). The resin was washed with buffer B (50 mM Tris, pH 8.5, 0.15 M NaCl, 0.1% DDM) and TEV cleavage was conducted on column overnight. Afterwards, the column was washed with buffer B, followed by His-washing buffer (50 mM Tris, pH 8.5, 0.15 M NaCl, 0.1% DDM, 10 mM imidazole). The protein was then removed from the resin using His-elution buffer (50 mM Tris, pH 8.5, 0.15 M NaCl, 0.1% DDM, 250 mM imidazole). The sample was further purified by size exclusion chromatography using a Superdex 200 Increase column (GE Life Sciences) in 50 mM Tris, pH 8.5, 0.15 M NaCl, and 0.1% DDM buffer. All APOL1 proteins (G0, G1, and G2) were generated at Viva Biotech (Shanghai) Ltd.
(§3) Modified HMI-9 media preparation (https://tryps.rockefeller.edu/trypsru2_culture_media_preparation.html; herein incorporated by reference in its entirety). Trypanosomes were cultured in modified HMI-9 media consisting of IMDM (ThermoFisher, 12440053), 10% heat-inactivated FBS (Gibco, 10082-147), 10% Serum Plus (Sigma-Aldrich, 14008C), 1×HMI-9 supplement stock, and 1% hypoxanthine stock. The 10×HMI-9 supplement stock was made by dissolving 280 mg bathocuproine disulfonic acid (Sigma-Aldrich, 146625), 1820 mg cysteine (add after bathocuproine) (Sigma-Aldrich, 30089), 1100 mg pyruvic acid (Sigma-Aldrich, 107360), 100 mg uracil (Sigma-Aldrich, U0750), 100 mg cytosine (Sigma-Aldrich, C3506) and 140 μL 2-mercaptoethanol (Sigma-Aldrich, M3148) in 1000 mL of water. The resulting solution was aliquoted and stored at −20° C. The hypoxanthine stock was made by dissolving 4 g of NaOH into 1000 mL of water. Afterwards, 13.6 g hypoxanthine (Sigma-Aldrich, H9377) was added to this mixture. The resulting solution was aliquoted and stored at −20° C.
(§4) Assay Setup. Trypanosoma brucei Lister 427 VSG221 (ATCC, PRA-382) cells were cultured in modified HMI-9 media. All experiments were performed in 384-well, white, solid bottom, tissue culture treated plates (Greiner, 781080). Assay ready plates were generated with duplicate 11-point compound dilution series that consisted of 2-fold stepwise dilutions (0.4% DMSO final). To each well, was added 20 μL of 2 μg/mL of APOL1 G0, G1, or G2 recombinant protein in modified HMI-9 media using a MultiDrop Combi (final APOL1 protein concentration=[…]). Trypanosomes were counted using a hemacytometer and diluted in modified HMI-9 media to a concentration of 1.25×10^4 cell/mL. […]

[2] = test system: HEK293 clonal cell line overexpressing APOL1 G1; experiment: APOL1 G1 HEK293 cell rescue assay (Example B3); details: geometric mean of at least 2 runs, † = single run, ¥ = concentration at 50% rescue estimated (no sigmoidal curve)
In short: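 HEK293 clonal line overexpressing APOL1 G1; EC50 is half-maximal reversal of APOL1-induced cell death. Values are the geometric mean of ≥2 runs on separate days, each run the average of duplicate wells. Where no sigmoidal curve could be fitted, the concentration giving 50% rescue was estimated.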

[3] = test system: Trypanosoma brucei Lister 427 VSG221 with APOL1 G2 recombinant protein; experiment: APOL1 G2 trypanosome cell rescue assay (Example B5); details: geometric mean of at least 2 assay runs, † = single assay run
Method: as §1, §2, §3, §4

[4] = test system: HEK293 cells overexpressing APOL1 G2; experiment: APOL1 G2 HEK293 cell rescue assay (reversal of cell death caused by overexpression of APOL1); details: geometric mean of at least 2 assay runs, † = single assay run
In short: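 EC50 is the half-maximal effective concentration for reversing cell death driven by APOL1 G2 overexpression in HEK293 cells. Reported as geometric mean of at least 2 runs on separate days, each run averaging duplicate wells per plate; some values from a single run.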

[5] = test system: Trypanosoma brucei Lister 427 VSG221 with APOL1 G1 recombinant protein; experiment: APOL1 G1 trypanosome cell rescue assay (Example B5); details: geometric mean of at least 2 assay runs, † = single assay run
Method: as §1, §2, §3, §4

[6] = Trypanosoma brucei, 20 h, read-out: APOL1 G0 Trypanosome Rescue EC50, Trypanosoma brucei Lister 427 VSG221 with APOL1 G0 recombinant protein, 20 hours, CellTiter-Glo
[7] = HEK293 clonal line overexpressing APOL1 G1
[8] = Trypanosoma brucei, 20 h, read-out: APOL1 G2 Trypanosome Rescue EC50, Trypanosoma brucei Lister 427 VSG221 with APOL1 G2 recombinant protein, 20 hours, CellTiter-Glo
[9] = read-out: APOL1 G1 Trypanosome Rescue EC50, Trypanosoma brucei Lister 427 VSG221 with APOL1 G1 recombinant protein, 20 hours, CellTiter-Glo
[10] = read-out: APOL1 G0 Trypanosome Rescue EC50, Trypanosoma brucei Lister 427 VSG221 with APOL1 G0 recombinant protein, 20 hours, CellTiter-Glo
[11] = Homo sapiens, HEK293, HEK293 clonal line overexpressing APOL1 G1
[12] = read-out: APOL1 G2 Trypanosome Rescue EC50, Trypanosoma brucei Lister 427 VSG221 with APOL1 G2 recombinant protein, 20 hours, CellTiter-Glo
[13] = Homo sapiens, HEK293, HEK293 overexpressing APOL1 G2
[14] = Trypanosoma brucei, 20 h, read-out: APOL1 G1 Trypanosome Rescue EC50, Trypanosoma brucei Lister 427 VSG221 with APOL1 G1 recombinant protein, 20 hours, CellTiter-Glo

Structure (SMILES) | EC50 [1, 6] | EC50 [2, 7] | EC50 [3, 8] | EC50 ([4]; HEK293 overexpressing APOL1 G2) | EC50 [5, 9] | EC50 [1, 10] | EC50 [2, 11] | EC50 [3, 12] | EC50 [4, 13] | EC50 [5, 14]
CC1(O)CC(CN2C(=O)CCc3cc(OCCN4CCC5(CC4)C(=O)Nc4ccc(Cl)cc45)cnc32)C1 (single isomer, unassigned) [Compound 313, 5-chloro-1′-{2-[(7-oxo-8-{[(cis) or (trans)-3-hydroxy-3-methylcyclobutyl]methyl}-5,6,7,8-tetrahydro-1,8-naphthyridin-3-yl)oxy]ethyl}-1,2-dihydrospiro[indole-3,4′-piperidin]-2-one] | 54.5 nM | 135 nM | 20.2 nM | 63.3 nM | 71.8 nM |  |  |  |  | 
CC1(O)CC(c2ncc(OCCN3CCC4(CC3)C(=O)Nc3ccc(Cl)cc34)cn2)C1 (single isomer, unassigned) [Compound 392, 5-chloro-1′-[2-({2-[(trans) or (cis)-3-hydroxy-3-methylcyclobutyl)pyrimidin-5-yl}oxy)ethyl]-1,2-dihydrospiro[indole-3,4′-piperidin]-2-one] |  |  |  | 27.1 nM | 79.4 nM | 70 nM | 89.9 nM | 28.5 nM |  | 
O=C1CCc2cc(OCCN3CCC4(CC3)C(=O)Nc3ccc(Cl)cc34)cnc2N1[C@H]1C[C@](O)(C2CC2)C1 (single isomer, unassigned) [Compound 398, 5-chloro-1′-[2-({7-oxo-8-[(cis)-3-cyclopropyl-3-hydroxycyclobutyl]-5,6,7,8-tetrahydro-1,8-naphthyridin-3-yl}oxy)ethyl]-1,2-dihydrospiro[indole-3,4′-piperidin]-2-one] | 53.6 nM |  | 18 nM |  |  |  | 374 nM |  | 20.1 nM | 52.2 nM
CC(CO)(c1ncc(OCCN2CCC3(CC2)C(=O)Nc2ccc(Cl)cc23)cc1C(F)(F)F)S(C)(=O)=O (single isomer, unassigned) [Compound 402, 5-chloro-1′-[2-({6-[(2S or 2R)-1-hydroxy-2-methanesulfonylpropan-2-yl]-5-(trifluoromethyl)pyridin-3-yl}oxy)ethyl]-1,2-dihydrospiro[indole-3,4′-piperidin]-2-one] | 33.6 nM | 35.7 nM | 16.5 nM | 23.8 nM |  |  |  |  |  | 42.7 nM
O=C1CCc2cc(OCCN3CCC4(CC3)C(=O)Nc3ccc(Cl)cc34)cnc2N1[C@H]1C[C@@H](O)C1 [Compound 190, 5-chloro-1′-[2-({7-oxo-8-[(cis)-3-hydroxycyclobutyl]-5,6,7,8-tetrahydro-1,8-naphthyridin-3-yl}oxy)ethyl]-1,2-dihydrospiro[indole-3,4′-piperidin]-2-one] | 92.1 nM |  | 35.7 nM |  |  |  | 105 nM |  | 54.7 nM | 104 nM
O=C(NC1CCS(=O)(=O)C1)c1ccc(OCCN2CCC3(CC2)C(=O)Nc2ccc(Cl)cc23)cc1F (stereo not shown) [Compound 241, 4-(2-{5-chloro-2-oxo-1,2-dihydrospiro[indole-3,4′-piperidin]-1′-yl}ethoxy)-N-(1,1-dioxo-1λ^6-thiolan-3-yl)-2-fluorobenzamide] | 177 nM |  | 63.3 nM |  |  |  | 217 nM |  | 72.1 nM | 258 nM
CS(=O)(=O)C1(c2ccc(OCCN3CCC4(CC3)C(=O)Nc3ccc(Cl)cc34)cc2)CC(O)C1 (stereo not shown) [Compound 268, 5-chloro-1′-{2-[4-(3-hydroxy-1-methanesulfonylcyclobutyl)phenoxy]ethyl}-1,2-dihydrospiro[indole-3,4′-piperidin]-2-one] |  | 211 nM |  | 53.4 nM | 121 nM | 108 nM |  | 32.7 nM |  | 
O=C(c1ccc(OCCN2CCC3(CC2)C(=O)N(CCO)c2ccc(Cl)cc23)cc1C(F)(F)F)N1CCS(=O)(=O)CC1 [Compound 271, 4-(4-{2-[5-chloro-1-(2-hydroxyethyl)-2-oxo-1,2-dihydrospiro[indole-3,4′-piperidin]-1′-yl]ethoxy}-2-(trifluoromethyl)benzoyl)-1λ^6-thiomorpholine-1,1-dione] | 51 nM |  | 15.9 nM |  |  |  | 340 nM |  | 152 nM | 50.7 nM
CC(=O)c1ncc(OCCN2CCC3(CC2)C(=O)Nc2ccc(Cl)cc23)cc1C(F)(F)F [Compound 294, 1′-(2-{[6-acetyl-5-(trifluoromethyl)pyridin-3-yl]oxy}ethyl)-5-chloro-1,2-dihydrospiro[indole-3,4′-piperidin]-2-one] | 61.9 nM |  | 21.4 nM |  |  |  | 65.6 nM |  | 23.3 nM | 89 nM
CC(=O)c1ncc(OCCN2CCC3(CC2)C(=O)Nc2ccc(C(F)F)cc23)cc1C(F)(F)F [Compound 295, 1′-(2-{[6-acetyl-5-(trifluoromethyl)pyridin-3-yl]oxy}ethyl)-5-(difluoromethyl)-1,2-dihydrospiro[indole-3,4′-piperidin]-2-one] | 32.6 nM |  | 11.1 nM |  |  |  | 112 nM |  | 43.6 nM | 40.2 nM
CC(=O)c1ncc(OCCN2CCC3(CC2)C(=O)Nc2ccc(C#N)cc23)cc1C(F)(F)F [Compound 298, 1′-(2-{[6-acetyl-5-(trifluoromethyl)pyridin-3-yl]oxy}ethyl)-2-oxo-1,2-dihydrospiro[indole-3,4′-piperidine]-5-carbonitrile] | 119 nM |  | 56.6 nM |  |  |  | 218 nM |  | 81.8 nM | 156 nM
